The target in test [1] is T1, Human recombinant DPP-IV (Homo sapiens, UniProt P27487).
T1 construct: purchased Sigma-Aldrich D 4943
In words: Target enzyme search: change in FI of probe after adding DPP-IV. It counts as biochemical. The settings on record: probe 1.0 μM; 2,000 seconds; ex/em 495 nm/525 nm; FIG. 5A. The procedure:
(§1) It was considered that dipeptidyl peptidase 4 (DPP-IV) or a similar enzyme was a target enzyme overexpressed in pancreatic cancer tissue. First, the candidate fluorescent probe was examined whether DPP-IV or the similar enzyme was activated. Human recombinant DPP-IV (50 μL; D 4943, Sigma-Aldrich), DPP-VIII (1.0 μg; ab162872, abcam), and DPP-IX (1.0 μg; ab79621, abcam) were injected into 3.0 mL of a probe solution (1.0 μM) using F-7000 (Hitachi (Tokyo)), and a change in FI during 2,000 seconds was measured. Excitation and emission wavelengths were set to 495 and 525 nm, respectively.

Test [2] deals with lysates prepared from tissue fragments of carcinomatous and non-carcinomatous sites (pancreatic cancer resected specimens). In words: Primary screening: increase in FI of probes mixed with lysates of carcinomatous and non-carcinomatous tissue. The class given is biochemical, human. The settings on record: lysates from five patients; probe 1.0 μM; 60 minutes, 37° C.; FIG. 1A. The procedure:
First, according to the procedure described in Non Patent Literatures 6 to 8, each of lysates prepared from tissue fragments of carcinomatous and non-carcinomatous sites was mixed with a fluorescent probe, an increased value of fluorescence intensity was measured, and a fluorescent probe as a candidate was selected. Briefly, 5 μL of a lysate (protein concentration: 0.20 mg/dL) was added dropwise to a well of a black 384 plate in which 15 μL of a library of dipeptide-HMRG compounds (Non Patent Literature 8) was arranged. Final concentrations of the candidate probe and the lysate protein were 1.0 μM and 0.050 mg/dL, respectively.
The fluorescence intensity (FI) of each sample was measured at 0 minutes and 60 minutes after mixing with Envision Multilabel Plate Reader (PerkinElmer, Massachusetts, USA) while performing incubation at 37° C. Excitation and emission wavelengths were set to 485 nm and 535 nm, respectively. An increase in FI was defined as follows.
(Increase in FI)=(FI after 60 minutes)−(FI after 0 minutes)
Probes with the top 10% difference or ratio in the increase in FI in the carcinomatous and non-carcinomatous lysates were selected as candidate probes and evaluated as follows.

In test [3] the target is T2, Human recombinant DPP-IX (Homo sapiens, UniProt Q86TI2).
T2 construct: purchased abcam ab79621
T2 sequence (Q86TI2 whole entry): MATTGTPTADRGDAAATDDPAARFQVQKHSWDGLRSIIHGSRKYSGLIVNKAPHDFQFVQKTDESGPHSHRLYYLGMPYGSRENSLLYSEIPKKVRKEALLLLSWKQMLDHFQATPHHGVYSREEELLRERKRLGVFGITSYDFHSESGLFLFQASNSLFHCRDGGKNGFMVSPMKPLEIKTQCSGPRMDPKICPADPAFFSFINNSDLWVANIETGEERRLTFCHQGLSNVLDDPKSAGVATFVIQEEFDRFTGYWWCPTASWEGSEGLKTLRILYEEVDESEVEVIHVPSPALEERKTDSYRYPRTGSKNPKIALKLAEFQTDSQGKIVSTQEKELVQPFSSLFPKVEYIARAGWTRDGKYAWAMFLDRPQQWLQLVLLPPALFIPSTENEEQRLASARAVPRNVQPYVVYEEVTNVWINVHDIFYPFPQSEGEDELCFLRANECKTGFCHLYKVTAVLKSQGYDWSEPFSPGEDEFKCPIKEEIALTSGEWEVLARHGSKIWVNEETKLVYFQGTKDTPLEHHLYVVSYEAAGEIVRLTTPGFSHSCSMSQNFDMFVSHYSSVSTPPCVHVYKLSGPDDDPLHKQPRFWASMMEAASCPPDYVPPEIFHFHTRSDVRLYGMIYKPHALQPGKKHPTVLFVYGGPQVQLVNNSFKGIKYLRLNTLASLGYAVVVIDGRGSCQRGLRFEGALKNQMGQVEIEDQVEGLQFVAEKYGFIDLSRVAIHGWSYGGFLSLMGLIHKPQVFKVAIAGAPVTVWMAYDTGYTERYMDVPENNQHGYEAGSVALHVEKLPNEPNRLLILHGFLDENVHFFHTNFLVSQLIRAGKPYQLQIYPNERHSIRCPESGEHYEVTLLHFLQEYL
The test can be described thus: Target enzyme search: change in FI of probe after adding DPP-IX. The class given is biochemical. The settings on record: probe 1.0 μM; 2,000 seconds; ex/em 495 nm/525 nm; FIG. 5C. The procedure: as §1

Test [4] concerns pancreatic cancer tissue in surgically resected specimen. The test can be described thus: Fluorescence imaging of cut surface of surgically resected pancreatic cancer specimens (TBR). The class given is cell-based, human. The method, then: Immediately after the pancreatic cancer specimen was extracted, the pancreatic cancer specimen was cut so as to include a maximum diameter of pancreatic cancer tissue. Next, the fluorescent probe described above (4 mL, 50 μM) was directly applied to the cut surface and fluorescence imaging was performed using Maestro in Vivo imaging system as described above. The accuracy of the fluorescence imaging was evaluated by a surgeon (RT) and a pathologist (MT) with reference to histopathological findings on the same plane. In addition, a tumor/background ratio (TBR) was also calculated by measuring the increase in average FI from 1 minute to 30 minutes after probe administration in carcinomatous and non-carcinomatous sites based on macroscopic/microscopic findings of the cut surface and corresponding fluorescence images.

The values below come from patent publication US20240201189A1, “FLUORESCENT PROBE FOR USE IN DETECTION OF PANCREATIC CANCER” (The University of Tokyo, priority 2021, published 2024).

Molecules are shown by their SMILES. Several values for one entry are separate records, joined by “and”; a condition that tells them apart may be missing. Identical values can stand only once.

T1 sequence (P27487 whole entry): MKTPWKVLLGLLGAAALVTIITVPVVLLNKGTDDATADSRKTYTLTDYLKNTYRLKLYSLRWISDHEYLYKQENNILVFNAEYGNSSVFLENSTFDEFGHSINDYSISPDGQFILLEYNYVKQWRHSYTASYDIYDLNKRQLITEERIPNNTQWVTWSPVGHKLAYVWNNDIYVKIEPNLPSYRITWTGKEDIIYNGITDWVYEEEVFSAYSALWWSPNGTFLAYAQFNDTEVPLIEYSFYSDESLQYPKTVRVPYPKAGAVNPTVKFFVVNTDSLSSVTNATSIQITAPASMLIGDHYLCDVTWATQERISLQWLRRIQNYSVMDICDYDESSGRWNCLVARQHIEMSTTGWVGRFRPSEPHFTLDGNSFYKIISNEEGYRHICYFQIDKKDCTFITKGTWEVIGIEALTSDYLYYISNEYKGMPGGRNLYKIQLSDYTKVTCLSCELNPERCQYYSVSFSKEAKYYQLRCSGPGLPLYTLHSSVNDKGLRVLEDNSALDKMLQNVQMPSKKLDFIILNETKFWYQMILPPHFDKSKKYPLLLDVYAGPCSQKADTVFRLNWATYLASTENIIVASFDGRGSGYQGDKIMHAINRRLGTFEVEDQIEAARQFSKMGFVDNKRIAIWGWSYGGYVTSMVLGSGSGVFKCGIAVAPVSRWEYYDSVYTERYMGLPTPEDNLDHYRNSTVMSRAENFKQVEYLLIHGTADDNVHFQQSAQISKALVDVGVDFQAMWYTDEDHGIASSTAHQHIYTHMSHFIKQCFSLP

As to `NCC(=O)N1CCC[C@H]1C(=O)Nc1ccc2c(c1)Oc1cc(N)ccc1C21OCc2ccccc21` (stereo partly drawn) [GP-HMRG], the “conversion of probe into fluorescent HMRG in reaction with DPP-IV” value in test [1] is recorded as “converted into a highly fluorescent HMRG”. The “increase in FI in carcinomatous tissue as opposed to non-carcinomatous tissue (lysates)” value (shortened to “increase … to non-carcinomatous tissue (lysates)”) in test [2] is recorded as “significant increase in FI in carcinomatous tissue”. Moreover, in test [3], the “conversion of probe into fluorescent HMRG in reaction with DPP-IX” value is “converted into a highly fluorescent HMRG”. Moreover, in test [4] (30 minutes after spraying, eight patients), the “average TBR of the fluorescence images” value was 1.96 (range, 1.31 to 2.04). In test [4] (Patient No. 8, after preoperative chemotherapy, cancer invasion), the “TBR in the connective tissue surrounding the splenic artery” value came to 2.04. Besides, the “TBR of the main tumor” value in test [4] (Patient No. 8, after preoperative chemotherapy, fibrosis and mucinous changes, few viable cancer cells) worked out at 1.13. Further, the “time from which increase in fluorescence signal in carcinomatous tissue was confirmed” value in test [4] (after topical administration) turned out to be 1 min. In test [4] (four of eight patients (Patient Nos. 1, 2, 4 and 5)), the “TBR in patients with uniform fluorescence signal of carcinomatous tissue” value was more than 1.9. Also, the “A TBR ratio of FI” value in test [4] (one value per patient (Patients 1-8), cut surface, increase in average FI from 1 to 30 minutes, probe 4 mL, 50 μM) was 1.98 (2×) and 1.93 and 1.47 and 1.26 and 1.13 and 3.44 and 2.06.

`CC(C)C[C@H](N)C(=O)N1CCC[C@H]1C(=O)Nc1ccc2c(c1)Oc1cc(N)ccc1C21OCc2ccccc21` (stereo partly drawn) [LP-HMRG]: the “increase … to non-carcinomatous tissue (lysates)” value in test [2] was “significant increase in FI in carcinomatous tissue”.

With `Nc1ccc2c(c1)Oc1cc(NC(=O)[C@@H]3CCCN3C(=O)[C@@H]3CCCN3)ccc1C21OCc2ccccc21` (stereo partly drawn) [PP-HMRG], in test [2], the “increase … to non-carcinomatous tissue (lysates)” value is given as “significant increase in FI in carcinomatous tissue”.

`Nc1ccc2c(c1)Oc1cc(NC(=O)[C@@H]3CCCN3C(=O)[C@@H](N)Cc3ccc(O)cc3)ccc1C21OCc2ccccc21` (stereo partly drawn) [YP-HMRG]: the “increase … to non-carcinomatous tissue (lysates)” value in test [2] is “significant increase in FI in carcinomatous tissue”.
